ChEMBL document CHEMBL5143515, “Identification of new halogen-containing 2,4-diphenyl indenopyridin-5-one derivative as a boosting agent for the anticancer responses of clinically available topoisomerase inhibitors” (Eur J Med Chem, 2022)

Experiments:
[1] = molecular target: DNA topoisomerase 2-alpha (Homo sapiens) (UniProt P11388); test: Inhibition of recombinant human topoisomerase 2alpha assessed as relaxation of supercoiled plasmid pBR322 DNA at 100 uM by agarose gel electrophoresis relative to control
Sequence of DNA topoisomerase 2-alpha (Homo sapiens) (P11388 whole entry): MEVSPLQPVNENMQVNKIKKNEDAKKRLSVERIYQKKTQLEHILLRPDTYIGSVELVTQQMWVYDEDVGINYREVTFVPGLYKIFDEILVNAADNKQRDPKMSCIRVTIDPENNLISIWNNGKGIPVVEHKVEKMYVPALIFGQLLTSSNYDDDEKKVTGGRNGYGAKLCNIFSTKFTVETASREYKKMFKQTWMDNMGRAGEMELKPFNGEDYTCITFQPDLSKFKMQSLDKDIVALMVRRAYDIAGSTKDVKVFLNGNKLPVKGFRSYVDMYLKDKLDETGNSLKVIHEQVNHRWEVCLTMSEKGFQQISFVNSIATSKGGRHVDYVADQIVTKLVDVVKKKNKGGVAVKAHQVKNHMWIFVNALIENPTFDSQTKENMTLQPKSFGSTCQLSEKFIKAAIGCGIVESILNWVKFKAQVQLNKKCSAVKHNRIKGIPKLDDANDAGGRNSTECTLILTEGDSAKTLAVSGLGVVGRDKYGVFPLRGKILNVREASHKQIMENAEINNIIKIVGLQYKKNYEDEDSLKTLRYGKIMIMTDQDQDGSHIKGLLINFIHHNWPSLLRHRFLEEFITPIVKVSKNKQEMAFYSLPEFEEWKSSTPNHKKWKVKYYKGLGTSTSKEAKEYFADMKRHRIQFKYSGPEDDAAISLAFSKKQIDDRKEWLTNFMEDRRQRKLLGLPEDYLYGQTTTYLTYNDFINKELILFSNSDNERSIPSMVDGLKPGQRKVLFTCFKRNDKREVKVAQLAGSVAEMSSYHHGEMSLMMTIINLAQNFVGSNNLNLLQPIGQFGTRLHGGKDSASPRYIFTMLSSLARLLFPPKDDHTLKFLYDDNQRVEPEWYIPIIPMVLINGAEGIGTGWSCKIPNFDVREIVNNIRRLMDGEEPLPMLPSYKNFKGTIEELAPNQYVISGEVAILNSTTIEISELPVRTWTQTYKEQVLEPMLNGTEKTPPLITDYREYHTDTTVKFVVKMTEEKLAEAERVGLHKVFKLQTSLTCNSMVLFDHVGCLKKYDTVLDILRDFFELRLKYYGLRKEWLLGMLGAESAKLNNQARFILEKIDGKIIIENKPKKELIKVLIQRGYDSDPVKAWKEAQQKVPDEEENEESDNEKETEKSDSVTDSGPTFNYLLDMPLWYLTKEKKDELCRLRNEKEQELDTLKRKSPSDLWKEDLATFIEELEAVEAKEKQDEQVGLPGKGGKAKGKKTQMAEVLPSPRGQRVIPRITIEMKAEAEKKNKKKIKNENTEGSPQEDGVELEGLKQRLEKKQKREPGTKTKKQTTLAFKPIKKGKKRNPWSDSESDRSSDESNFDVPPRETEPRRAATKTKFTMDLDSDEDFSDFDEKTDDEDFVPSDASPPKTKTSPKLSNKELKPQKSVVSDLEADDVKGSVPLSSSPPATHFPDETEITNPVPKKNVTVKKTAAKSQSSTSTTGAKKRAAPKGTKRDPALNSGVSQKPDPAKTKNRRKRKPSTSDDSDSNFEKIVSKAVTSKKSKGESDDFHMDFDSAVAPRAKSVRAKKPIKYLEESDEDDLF

[2] = molecular target: DNA topoisomerase 2-alpha (Homo sapiens) (UniProt P11388); test: Inhibition of recombinant human topoisomerase 2alpha assessed as relaxation of supercoiled plasmid pBR322 DNA at 100 uM by agarose gel electrophoresis (reference value: 84.9%)
HCT-15 = test: Antiproliferative activity against human HCT-15 cells after 72 hrs by EZ-Cytox colorimetric assay; type: functional, cell-based; conditions: HCT-15, 72 h
[3] = molecular target: DNA topoisomerase 2-alpha (Homo sapiens) (UniProt P11388); test: Inhibition of recombinant human topoisomerase 2alpha assessed as relaxation of supercoiled plasmid pBR322 DNA at 20 uM by agarose gel electrophoresis relative to control
DU-145 = test: Antiproliferative activity against human DU-145 cells after 72 hrs by EZ-Cytox colorimetric assay; type: functional, cell-based; conditions: DU-145, 72 h
[4] = molecular target: T1, DNA topoisomerase 1 (Homo sapiens) (UniProt P11387); test: Inhibition of recombinant human topoisomerase 1 assessed as relaxation of supercoiled plasmid pBR322 DNA at 100 uM by agarose gel electrophoresis (reference value: […]%)
T1 sequence (whole entry): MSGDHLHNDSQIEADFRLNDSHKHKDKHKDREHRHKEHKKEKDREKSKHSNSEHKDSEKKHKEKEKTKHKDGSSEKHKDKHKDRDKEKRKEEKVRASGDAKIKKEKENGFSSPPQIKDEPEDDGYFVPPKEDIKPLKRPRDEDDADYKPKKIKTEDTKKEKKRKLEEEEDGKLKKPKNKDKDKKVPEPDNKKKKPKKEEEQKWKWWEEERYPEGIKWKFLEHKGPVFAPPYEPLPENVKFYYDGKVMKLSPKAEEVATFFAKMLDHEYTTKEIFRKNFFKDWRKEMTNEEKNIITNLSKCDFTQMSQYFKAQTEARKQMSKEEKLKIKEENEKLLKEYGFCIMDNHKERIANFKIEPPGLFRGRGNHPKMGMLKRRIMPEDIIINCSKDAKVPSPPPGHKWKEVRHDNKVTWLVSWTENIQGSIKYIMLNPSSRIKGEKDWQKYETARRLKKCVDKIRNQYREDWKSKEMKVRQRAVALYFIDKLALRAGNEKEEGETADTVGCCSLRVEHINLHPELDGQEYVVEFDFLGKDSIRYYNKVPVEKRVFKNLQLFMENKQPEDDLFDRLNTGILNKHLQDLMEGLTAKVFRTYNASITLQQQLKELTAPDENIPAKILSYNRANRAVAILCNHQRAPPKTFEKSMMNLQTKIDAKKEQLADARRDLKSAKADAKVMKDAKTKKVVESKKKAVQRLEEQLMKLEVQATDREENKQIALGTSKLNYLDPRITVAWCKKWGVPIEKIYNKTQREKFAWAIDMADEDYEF

T47D = test: Antiproliferative activity against human T47D cells after 72 hrs by EZ-Cytox colorimetric assay; type: functional, cell-based
HeLa = test: Antiproliferative activity against human HeLa cells after 72 hrs by EZ-Cytox colorimetric assay; type: functional, cell-based
[5] = Toxicity in mouse assessed as increase in mean corpuscular volume of RBC at 2 mg/kg; type: organism-based, Erythrocyte; conditions: in vivo
[6] = Toxicity in mouse assessed as reduction in hemoglobin level at 20 mg/kg; type: organism-based; conditions: in vivo
[7] = Toxicity in mouse assessed as reduction in number of red blood cells at 2 mg/kg; type: organism-based; conditions: in vivo
[8] = Toxicity in mouse assessed as increase in mean corpuscular volume of RBC at 20 mg/kg; type: organism-based, Erythrocyte; conditions: in vivo
[9] = Toxicity in mouse assessed as reduction in number of white blood cells at 2 to 20 mg/kg; type: organism-based; conditions: in vivo, dose 2-20 mg/kg
[10] = Genotoxicity in human HCT-15 cells assessed as production of gamma-H2AX at 2 uM and measured by western blot analysis; type: toxicity, cell-based; conditions: hct-15, 2 µM
[11] = Toxicity in mouse assessed as increase in d red cell distribution width at 20 mg/kg; type: organism-based; conditions: in vivo
[12] = Toxicity in mouse assessed as reduction in hemoglobin level at 2 mg/kg; type: organism-based; conditions: in vivo
[13] = Toxicity in mouse assessed as reduction in number of red blood cells at 20 mg/kg; type: organism-based; conditions: in vivo
[14] = Toxicity in mouse assessed as increase in d red cell distribution width at 2 mg/kg; type: organism-based; conditions: in vivo
[15] = Genotoxicity in human HCT-15 cells assessed as production of gamma-H2AX at 0.2 uM and measured by western blot analysis; type: toxicity, cell-based; conditions: hct-15, 0.2 µM
[16] = Genotoxicity in human HCT-15 cells assessed as production of fragmented DNA tails at 2 uM and measured by comet assay; type: toxicity, cell-based; conditions: hct-15, 2 µM
[17] = Toxicity in mouse assessed as reduction in number of absolute neutrophil count at 2 to 20 mg/kg; type: organism-based; conditions: dose 2-20 mg/kg
[18] = Genotoxicity in human HCT-15 cells assessed as production of fragmented DNA tails at 0.2 uM and measured by comet assay; type: toxicity, cell-based; conditions: hct-15, 0.2 µM
[19] = Genotoxicity in human HCT-15 cells assessed as production of Ub1-gamma-H2AX at 0.2 uM and measured by western blot analysis; type: toxicity, cell-based; conditions: hct-15, 0.2 µM
[20] = Genotoxicity in human HCT-15 cells assessed as production of Ub1-gamma-H2AX at 2 uM and measured by western blot analysis; type: toxicity, cell-based; conditions: hct-15, 2 µM
[21] = molecular target: T1, DNA topoisomerase 1 (Homo sapiens); test: Inhibition of recombinant human topoisomerase 1 assessed as relaxation of supercoiled plasmid pBR322 DNA at 100 uM by agarose gel electrophoresis relative to control
[22] = molecular target: DNA topoisomerase 2-alpha (Homo sapiens) (UniProt P11388); test: Inhibition of recombinant human topoisomerase 2alpha assessed as relaxation of supercoiled plasmid pBR322 DNA at 20 uM by agarose gel electrophoresis (reference value: […]%)
[23] = molecular target: T1, DNA topoisomerase 1 (Homo sapiens); test: Inhibition of recombinant human topoisomerase 1 assessed as relaxation of supercoiled plasmid pBR322 DNA at 100 uM by agarose gel electrophoresis (reference value: 81.9%)
[24] = molecular target: DNA topoisomerase 2-alpha (Homo sapiens) (UniProt P11388); test: Inhibition of recombinant human topoisomerase 2alpha assessed as relaxation of supercoiled plasmid pBR322 DNA at 100 uM by agarose gel electrophoresis (reference value: 81%)
[25] = molecular target: T1, DNA topoisomerase 1 (Homo sapiens); test: Inhibition of recombinant human topoisomerase 1 assessed as relaxation of supercoiled plasmid pBR322 DNA at 20 uM by agarose gel electrophoresis (reference value: 38.3%)
[26] = molecular target: T1, DNA topoisomerase 1 (Homo sapiens); test: Inhibition of recombinant human topoisomerase 1 assessed as relaxation of supercoiled plasmid pBR322 DNA at 20 uM by agarose gel electrophoresis relative to control
[27] = Genotoxicity in human HCT-15 cells assessed as production of fragmented DNA tails at 1 nM and measured by comet assay; type: toxicity, cell-based; conditions: hct-15, 0.001 µM
[28] = Genotoxicity in human HCT-15 cells assessed as production of gamma-H2AX at 1 nM and measured by western blot analysis; type: toxicity, cell-based; conditions: hct-15, 0.001 µM
[29] = Genotoxicity in human HCT-15 cells assessed as production of Ub1-gamma-H2AX at 1 nM and measured by western blot analysis; type: toxicity, cell-based; conditions: hct-15, 0.001 µM
[30] = Genotoxicity in human HCT-15 cells assessed as production of Ub1-gamma-H2AX at 100 nM and measured by western blot analysis; type: toxicity, cell-based; conditions: hct-15, 0.1 µM
[31] = Genotoxicity in human HCT-15 cells assessed as production of gamma-H2AX at 100 nM and measured by western blot analysis; type: toxicity, cell-based; conditions: hct-15, 0.1 µM
[32] = Genotoxicity in human HCT-15 cells assessed as production of fragmented DNA tails at 100 nM and measured by comet assay; type: toxicity, cell-based; conditions: hct-15, 0.1 µM

| SMILES | inhibition [2] | inhibition [3] | inhibition [4] | IC50 (HCT-15) | IC50 (DU-145) | IC50 (T47D) | IC50 (HeLa) | other results |
| --- | --- | --- | --- | --- | --- | --- | --- | --- |
| O=C1c2ccccc2-c2nc(-c3ccccc3)cc(-c3ccccc3)c21 | – | – | – | – | – | – | – | inhibition [1]: 2.5% |
| COc1cc([C@@H]2c3cc4c(cc3[C@@H](O[C@@H]3O[C@@H]5CO[C@@H](C)O[C@H]5[C@H](O)[C@H]3O)[C@H]3COC(=O)[C@H]23)OCO4)cc(OC)c1O [ETOPOSIDE] | – | – | – | 2.38 µM | 4.13 µM | 5.58 µM | 8.09 µM | Activity [5]: Non-Toxic; Activity [6]: Toxic; Activity [7]: Non-Toxic; Activity [8]: Toxic; Activity [9]: Toxic; Activity [10]: Toxic; Activity [11]: Toxic; Activity [12]: Non-Toxic; Activity [13]: Toxic; Activity [14]: Non-Toxic; Activity [15]: Non-Toxic; Activity [16]: Toxic; Activity [17]: Toxic; Activity [18]: Non-Toxic; Activity [19]: Non-Toxic; Activity [20]: Toxic |
| O=C1c2ccccc2-c2nc(-c3ccccc3O)cc(-c3ccccc3)c21 | – | – | – | – | – | – | – | inhibition [21]: 0% |
| O=C1c2ccccc2-c2nc(-c3cccc(C(F)(F)F)c3)cc(-c3ccccc3)c21 | – | – | – | 21.5 µM | 15.2 µM | > 50 µM | > 50 µM | inhibition [22]: 3.4%; inhibition [23]: 81.9%; inhibition [24]: 92.2%; inhibition [25]: 22.5% |
| O=C1c2ccccc2-c2nc(-c3ccc(C(F)(F)F)cc3)cc(-c3ccccc3)c21 | – | – | – | 20.5 µM | 42.2 µM | > 50 µM | > 50 µM | inhibition [22]: 0.3%; inhibition [23]: 89.8%; inhibition [24]: 57.2%; inhibition [25]: 8.1% |
| O=C1c2ccccc2-c2nc(-c3ccc(O)cc3)cc(-c3ccccc3)c21 | – | – | – | – | – | – | – | inhibition [21]: 0% |
| O=C1c2ccccc2-c2nc(-c3ccccc3C(F)(F)F)cc(-c3ccccc3)c21 | – | – | – | > 50 µM | 34 µM | > 50 µM | > 50 µM | inhibition [22]: 0.9%; inhibition [23]: 45%; inhibition [24]: 83.1%; inhibition [25]: 15.6% |
| OC1c2ccccc2-c2nc(-c3ccccc3OC(F)(F)F)cc(-c3ccccc3)c21 (stereo not drawn) | 86% | 13.8% | 37.4% | 7.33 µM | 0.71 µM | 1.06 µM | 1730 µM | inhibition [26]: 1% |
| CC[C@@]1(O)C(=O)OCc2c1cc1n(c2=O)Cc2cc3ccccc3nc2-1 [CAMPTOTHECIN] | – | – | – | – | 0.21 µM | 0.09 µM | 0.23 µM | Activity [27]: Non-Toxic; Activity [28]: Non-Toxic; Activity [29]: Non-Toxic; Activity [30]: Toxic; Activity [31]: Toxic; Activity [32]: Toxic |
| OC1c2ccccc2-c2nc(-c3ccccc3)cc(-c3ccccc3)c21 (stereo not drawn) | – | – | – | – | – | – | – | inhibition [26]: 0% |

The next lines start with results.

| inhibition [2] | inhibition [3] | inhibition [4] | SMILES | IC50 (HCT-15) | IC50 (DU-145) | IC50 (T47D) | IC50 (HeLa) | other results |
| --- | --- | --- | --- | --- | --- | --- | --- | --- |
| 57.3% | 9.3% | 25.9% | OC1c2ccccc2-c2nc(-c3cccc(C(F)(F)F)c3)cc(-c3ccccc3)c21 (stereo not drawn) | > 50 µM | > 50 µM | > 50 µM | > 50 µM | – |
| 52.2% | 8.1% | 7.2% | OC1c2ccccc2-c2nc(-c3ccccc3C(F)(F)F)cc(-c3ccccc3)c21 (stereo not drawn) | > 50 µM | > 50 µM | > 50 µM | > 50 µM | – |
| 61.2% | 8.7% | 26.8% | OC1c2ccccc2-c2nc(-c3ccc(OC(F)(F)F)cc3)cc(-c3ccccc3)c21 (stereo not drawn) | > 50 µM | > 50 µM | > 50 µM | > 50 µM | – |
| 66.7% | 12.2% | 18.3% | OC1c2ccccc2-c2nc(-c3cccc(OC(F)(F)F)c3)cc(-c3ccccc3)c21 (stereo not drawn) | > 50 µM | > 50 µM | 14.8 µM | > 50 µM | – |
